What was measured:
Format in all cases: physicochemical
[1] = Octanol-water partition coefficient, log P of noncharged form of compound at 0.15 M ionic strength by stir flask method
[2] = Octanol-water distribution coefficient, log D of the compound at pH 4.96 by stir flask method
[3] = Octanol-water distribution coefficient, log D of the compound at pH 13.18 by stir flask method
[4] = Octanol-water partition coefficient, log P of zwitter ionic form of compound at 0.15 M ionic strength by stir flask method
[5] = Octanol-water distribution coefficient, log D of the compound at pH 0.82 by stir flask method
[6] = Octanol-water distribution coefficient, log D of the compound at pH 5.4 by stir flask method

CC[C@@]12C=C(C(=O)O)n3c4c(c5ccccc53)CCN(CCC1)[C@@H]42
logP [1]: 3.98
logD [2]: -0.14
logD [3]: 0.21
logP [4]: -0.22
logD [5]: 0.13

CC[C@@]12C=C(C(=O)O)n3c4c(c5ccccc53)CCN(CCC1)[C@H]42
logP [1]: 3.46
logD [6]: -0.97
logD [3]: -0.07
logP [4]: -1.03
logD [5]: -0.05

CCOC(=O)C1=C[C@]2(CC)CCCN3CCc4c(n1c1ccccc41)[C@H]32
logP [1]: 4.75
logD [5]: 0.9

CCOC(=O)C1=C[C@]2(CC)CCCN3CCc4c(n1c1ccccc41)[C@@H]32 [VINPOCETINE]
logP [1]: 4.45
logD [5]: 0.94
